In ChEMBL document CHEMBL5532678, “Comprehensive Insights that Targeting PIM for Cancer Therapy: Prospects and Obstacles” (J Med Chem, 2024):

Tests used:
[1] = target: T1, Serine/threonine-protein kinase pim-1 (Homo sapiens, UniProt P11309); assay: Inhibition of human PIM1 using KKRNRTLTK as substrate in presence of [gamma-33P]-ATP by hotspot kinase assay
[2] = target: T2, Prostaglandin G/H synthase 2 (Homo sapiens, UniProt P35354); assay: Inhibition of COX2 (unknown origin) fluorescence based analysis
T2 sequence (P35354 whole entry): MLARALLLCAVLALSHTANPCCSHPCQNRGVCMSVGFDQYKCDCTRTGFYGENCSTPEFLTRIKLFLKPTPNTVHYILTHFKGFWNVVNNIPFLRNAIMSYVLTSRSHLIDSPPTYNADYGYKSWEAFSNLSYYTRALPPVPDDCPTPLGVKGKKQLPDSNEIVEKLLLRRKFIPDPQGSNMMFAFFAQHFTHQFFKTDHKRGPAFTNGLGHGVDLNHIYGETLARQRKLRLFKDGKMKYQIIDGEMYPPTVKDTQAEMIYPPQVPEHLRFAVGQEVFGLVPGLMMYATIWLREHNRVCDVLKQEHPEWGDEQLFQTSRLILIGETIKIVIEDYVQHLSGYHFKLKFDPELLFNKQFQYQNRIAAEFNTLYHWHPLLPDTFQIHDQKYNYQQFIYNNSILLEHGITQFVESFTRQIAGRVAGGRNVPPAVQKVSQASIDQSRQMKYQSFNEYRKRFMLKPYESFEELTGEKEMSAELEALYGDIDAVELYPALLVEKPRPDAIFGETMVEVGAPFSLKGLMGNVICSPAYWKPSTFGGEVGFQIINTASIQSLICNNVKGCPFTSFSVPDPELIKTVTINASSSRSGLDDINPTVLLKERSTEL

[3] = target: T1, Serine/threonine-protein kinase pim-1; assay: Inhibition of human recombinant PIM1
[4] = target: Prostaglandin G/H synthase 1 (Homo sapiens, UniProt P23219); assay: Inhibition of COX1 (unknown origin) fluorescence based analysis
[5] = target: T3, Polyunsaturated fatty acid 5-lipoxygenase (Homo sapiens, UniProt P09917); assay: Inhibition of 5-LOX in human PMNL cells; format: cell-based
T3 sequence (P09917 whole entry): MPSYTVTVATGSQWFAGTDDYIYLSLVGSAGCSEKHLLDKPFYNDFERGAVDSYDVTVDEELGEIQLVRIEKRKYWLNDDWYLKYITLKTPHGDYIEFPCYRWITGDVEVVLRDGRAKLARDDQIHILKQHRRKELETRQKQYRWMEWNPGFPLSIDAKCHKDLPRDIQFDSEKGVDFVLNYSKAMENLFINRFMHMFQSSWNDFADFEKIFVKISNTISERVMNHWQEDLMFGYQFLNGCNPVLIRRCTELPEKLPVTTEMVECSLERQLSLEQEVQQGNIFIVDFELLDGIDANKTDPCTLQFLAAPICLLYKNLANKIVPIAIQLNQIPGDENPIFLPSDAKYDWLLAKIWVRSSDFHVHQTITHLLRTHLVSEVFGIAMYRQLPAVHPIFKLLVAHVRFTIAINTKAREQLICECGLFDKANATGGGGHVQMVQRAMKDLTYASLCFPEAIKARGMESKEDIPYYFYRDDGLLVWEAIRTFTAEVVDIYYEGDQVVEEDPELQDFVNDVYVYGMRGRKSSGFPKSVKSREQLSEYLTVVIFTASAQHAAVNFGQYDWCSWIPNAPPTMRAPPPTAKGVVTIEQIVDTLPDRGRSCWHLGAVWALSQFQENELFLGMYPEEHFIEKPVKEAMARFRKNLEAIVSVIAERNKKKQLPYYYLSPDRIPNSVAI

[6] = target: T4, Serine/threonine-protein kinase pim-2 (Homo sapiens, UniProt Q9P1W9); assay: Inhibition of N-terminal GST-tagged full length human PIM2 (1 to 311 residues) expressed in baculovirus expression system using S6K2 peptide as substrate at 1 uM in presence of ATP by Mobility shift assay
PC-3 = assay: Anticancer activity against human PC-3 cells assessed as inhibition of cell growth incubated for 24 hrs by MTT assay; format: functional, cell-based; conditions: PC-3, 24 h
[7] = target: T1, Serine/threonine-protein kinase pim-1; assay: Inhibition of human PIM1 by discoverX kinome scan assay
HepG2 = assay: Antiproliferative activity against human HepG2 cells assessed as inhibition of cell growth incubated for 72 hrs by MTT assay; format: functional, cell-based; conditions: HepG2, 72 h
MCF7 [8] = assay: Antiproliferative activity against human MCF7 cells assessed as reduction in cell growth incubated for 48 hrs by MTT assay; format: functional, cell-based; conditions: MCF7, 48 h
[9] = target: T1, Serine/threonine-protein kinase pim-1
[10] = target: T1, Serine/threonine-protein kinase pim-1; assay: Inhibition of human full length-His6 tagged PIM1 (1 to 312 residues) expressed in Escherichia coli BL21 (DE3) using RSRHSSYPAGT as peptide substrate incubated for 10 mins in presence of [gamma-32P]ATP by radiometric scintillation assay
[11] = target: T5, Serine/threonine-protein kinase pim-3 (Homo sapiens, UniProt Q86V86); assay: Inhibition of N-terminal GST-tagged full length human PIM3 (1 to 326 residues) expressed in baculovirus expression system using S6K2 peptide as substrate at 1 uM in presence of ATP by Mobility shift assay
[12] = target: T4, Serine/threonine-protein kinase pim-2; assay: Inhibition of human full length-His6 tagged PIM2 (1 to 311 residues) expressed in Escherichia coli BL21 (DE3) assessed as inhibition constant using RSRHSSYPAGT as peptide substrate incubated for 10 mins in presence of [gamma-32P]ATP by radiometric scintillation assay
[13] = target: T4, Serine/threonine-protein kinase pim-2
[14] = target: T5, Serine/threonine-protein kinase pim-3
[15] = target: Dual specificity protein kinase CLK1 (Homo sapiens, UniProt P49759); assay: Inhibition of CLK1 (unknown origin) using GRSRSRSRSRSRSRS as substrate incubated for 15 mins in presence of ATP by gamma32P-ATP based analysis
[16] = target: T4, Serine/threonine-protein kinase pim-2; assay: Inhibition of PIM2 (unknown origin) by FRET based Z-LYTE kinase assay
[17] = target: T5, Serine/threonine-protein kinase pim-3; assay: Inhibition of PIM3 (unknown origin) by FRET based Z-LYTE kinase assay
HCT-116 = assay: Cytotoxicity against human HCT-116 cells assessed as reduction in cell viability incubated for 72 hrs by MTT assay; format: functional, cell-based; conditions: HCT-116, 72 h
MCF7 [18] = assay: Cytotoxicity against human MCF7 cells assessed as reduction in cell growth incubated for 72 hrs by MTT assay; format: functional, cell-based; conditions: MCF7, 72 h
MCF7 [19] = assay: Cytotoxicity against human MCF7 cells assessed as reduction in cell viability by MTT assay; format: functional, cell-based

With `CCc1ccc(NC(=O)c2sc3nc(-c4ccc(OC)c(OC)c4)cc(-c4ccc(O)c(O)c4)c3c2N)cc1` the IC50 [1] was 9390 nM.
In the case of `Cc1ccc(C(C)C)c(O)c1/C=N/N=C1NC(=O)C(CC(=O)O)S1` (stereo not given), the IC50 [2] is reported as 91 nM, the IC50 [3] is reported as 2960 nM and the IC50 [4] is reported as 9400 nM. The IC50 [5] was 3540 nM and the IC50 [6] was 1380 nM.
Work on `N#Cc1c(-c2ccco2)cc(-c2ccc(N3C(=O)c4ccccc4C3=O)cc2)nc1N` yielded an IC50 (PC-3) of 33400 nM, an IC50 [7] of 630 nM and an IC50 (HepG2) of 31100 nM. For the same compound, the IC50 (MCF7 [8]) was 19700 nM.
`NCCN1CCN(CCN2c3ccncc3Oc3ccc(Br)cc32)CC1` was tested, and the IC50 [9] was 0.9 nM.
Work on `COc1ccc(/C=C/C(=O)/C=C2/C(=O)Nc3cc(Br)ccc32)cc1` yielded an IC50 [10] of 370 nM, an IC50 [11] of 300 nM and an IC50 [12] of 410 nM.
Work on `N#Cc1c(-c2ccccc2O)cc(-c2ccc(N3C(=O)c4ccccc4C3=O)cc2)nc1N` yielded an IC50 (PC-3) of 27600 nM, an IC50 [7] of 9760 nM and an IC50 (HepG2) of 14600 nM. For the same compound, the IC50 (MCF7 [8]) was 13400 nM.
Compound `Fc1cncc(-c2ccc3[nH]c4ncnc(N[C@H]5CC[C@H](N6CCOCC6)CC5)c4c3c2)c1` has an IC50 [1] of 4.6 nM.
Compound `C[C@@H]1CCCN(c2c(/C=C3\SC(=O)NC3=O)cccc2-c2ccccc2)C1` has an IC50 [13] of 5 nM, an IC50 [14] of 3 nM and an IC50 [9] of 3 nM.
In the case of `NC(=O)c1c(O)cc(O)c2c1oc1cc(O)ccc12`, the IC50 [15] is reported as 26 nM.
`Cc1ccc(-c2cncc(NCCN(C)C)n2)cc1CC1SC(=O)NC1=O` (stereo not given) showed an IC50 [16] of 6 nM and an IC50 [17] of 6 nM.
Work on `N#Cc1c(-c2ccccc2)cc(-c2ccccc2)nc1OCCCC(=O)NO` yielded an IC50 [1] of 344 nM.
Work on `COc1ccc(/C=C/C(=O)CC2(O)C(=O)Nc3cc(Br)ccc32)cc1` (stereo not given) yielded an IC50 [10] of 1620 nM, an IC50 [11] of 1740 nM and an IC50 [12] of 2460 nM.
In the case of `Cc1nc2sc3c(c2c(C)c1Br)NC(c1ccccc1Cl)NC3=O` (stereo not given), the IC50 (HCT-116) is reported as 18600 nM and the IC50 (MCF7 [18]) is reported as 23800 nM.
For `Cc1nc2sc(C(=O)Nc3ccc(F)c(Cl)c3)c(N)c2c(C)c1Br`, the IC50 [7] was 35700 nM and the IC50 (MCF7 [19]) was 75900 nM.
For `N#Cc1c(-c2ccccc2)cc(-c2ccccc2)nc1OCCCCC(=O)NO`, the IC50 [1] was 365 nM.
With `CC(C)n1c(C2CCNCC2)nc2c([N+](=O)[O-])c(Br)c(Br)cc21` [DAPOLSERTIB] the IC50 [13] was 2 nM, the IC50 [14] was 3 nM and the IC50 [9] was 2 nM.
Work on `CC(C)(O)[C@H]1CC[C@H](Nc2ccc3ncc(-c4cccc(C(F)(F)F)c4)n3n2)CC1` [NUVISERTIB] yielded an IC50 [13] of 239 nM, an IC50 [14] of 42 nM and an IC50 [9] of 5 nM.
